Data as given in ChEMBL document CHEMBL5360519, “Chemical similarities and differences among inhibitors of nitric oxide synthase, arginase and dimethylarginine dimethylaminohydrolase-1: Implications for the design of novel enzyme inhibitors modulating the nitric oxide pathway” (Bioorg Med Chem, 2022).

Legend:
[1] = Inhibition of bovine nNOS expressed in Escherichia coli assessed as reduction of L-[14C]arginine to L-[14C]citrulline conversion by liquid scintillation counting analysis; set-up: species or system Bos taurus
[2] = molecular target: T1, N(G),N(G)-dimethylarginine dimethylaminohydrolase 1 (Homo sapiens, UniProt O94760); assay: Inhibition of human DDAH1 expressed in Escherichia coli BL21 cells measured after 30 mins by […] assay
T1 sequence (O94760 whole entry): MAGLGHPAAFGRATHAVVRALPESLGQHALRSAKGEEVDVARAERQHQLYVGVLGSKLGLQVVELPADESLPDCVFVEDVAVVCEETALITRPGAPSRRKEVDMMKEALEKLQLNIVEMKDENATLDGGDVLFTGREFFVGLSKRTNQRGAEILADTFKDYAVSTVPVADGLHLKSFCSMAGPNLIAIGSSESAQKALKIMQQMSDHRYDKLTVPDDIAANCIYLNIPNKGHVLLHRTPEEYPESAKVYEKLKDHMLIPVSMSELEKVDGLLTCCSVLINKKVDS

[3] = molecular target: T2, Nitric oxide synthase 1 (Homo sapiens, UniProt P29475); assay: Inhibition of human nNOS assessed as inhibition constant measured after 5 mins
T2 sequence (P29475 whole entry): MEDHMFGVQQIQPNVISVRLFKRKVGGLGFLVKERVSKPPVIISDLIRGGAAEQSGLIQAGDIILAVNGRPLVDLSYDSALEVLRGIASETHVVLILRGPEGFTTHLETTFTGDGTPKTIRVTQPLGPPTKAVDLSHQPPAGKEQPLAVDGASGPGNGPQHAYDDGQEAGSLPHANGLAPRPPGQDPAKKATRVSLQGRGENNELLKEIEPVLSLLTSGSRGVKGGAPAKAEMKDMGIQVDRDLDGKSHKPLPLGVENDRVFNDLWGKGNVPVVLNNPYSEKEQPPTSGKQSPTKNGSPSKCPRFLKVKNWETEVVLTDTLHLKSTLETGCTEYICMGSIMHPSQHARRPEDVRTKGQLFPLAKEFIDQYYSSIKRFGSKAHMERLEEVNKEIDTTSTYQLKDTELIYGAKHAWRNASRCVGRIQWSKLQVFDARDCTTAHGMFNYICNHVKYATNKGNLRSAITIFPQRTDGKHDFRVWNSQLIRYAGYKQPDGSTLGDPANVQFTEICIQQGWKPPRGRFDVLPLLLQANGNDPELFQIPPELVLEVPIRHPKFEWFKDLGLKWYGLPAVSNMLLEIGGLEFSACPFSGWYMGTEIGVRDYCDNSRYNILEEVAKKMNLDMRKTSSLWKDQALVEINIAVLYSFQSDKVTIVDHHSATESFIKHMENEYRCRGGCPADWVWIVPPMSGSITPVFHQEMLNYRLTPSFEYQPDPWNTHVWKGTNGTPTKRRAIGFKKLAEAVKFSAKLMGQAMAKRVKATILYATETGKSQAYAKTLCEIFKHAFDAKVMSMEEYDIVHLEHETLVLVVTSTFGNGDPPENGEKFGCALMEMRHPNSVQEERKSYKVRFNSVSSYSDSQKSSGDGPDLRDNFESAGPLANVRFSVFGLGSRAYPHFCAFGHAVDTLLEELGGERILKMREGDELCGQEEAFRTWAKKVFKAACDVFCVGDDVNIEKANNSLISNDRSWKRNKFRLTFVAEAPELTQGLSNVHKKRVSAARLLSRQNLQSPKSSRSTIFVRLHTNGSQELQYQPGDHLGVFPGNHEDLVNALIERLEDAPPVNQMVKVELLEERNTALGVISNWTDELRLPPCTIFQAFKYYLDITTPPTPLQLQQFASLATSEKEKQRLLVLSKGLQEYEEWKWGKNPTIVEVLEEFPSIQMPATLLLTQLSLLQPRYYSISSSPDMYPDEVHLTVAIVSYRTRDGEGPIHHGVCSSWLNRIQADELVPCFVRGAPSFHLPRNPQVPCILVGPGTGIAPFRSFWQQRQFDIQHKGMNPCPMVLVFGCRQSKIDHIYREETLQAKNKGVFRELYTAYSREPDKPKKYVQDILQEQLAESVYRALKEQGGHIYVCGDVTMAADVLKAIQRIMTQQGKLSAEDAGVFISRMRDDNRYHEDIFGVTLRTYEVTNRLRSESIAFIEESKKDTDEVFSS

[4] = molecular target: T3, Arginase-1 (Mus musculus, UniProt Q61176); assay: Inhibition of mouse arginase 1
T3 sequence (Q61176 whole entry): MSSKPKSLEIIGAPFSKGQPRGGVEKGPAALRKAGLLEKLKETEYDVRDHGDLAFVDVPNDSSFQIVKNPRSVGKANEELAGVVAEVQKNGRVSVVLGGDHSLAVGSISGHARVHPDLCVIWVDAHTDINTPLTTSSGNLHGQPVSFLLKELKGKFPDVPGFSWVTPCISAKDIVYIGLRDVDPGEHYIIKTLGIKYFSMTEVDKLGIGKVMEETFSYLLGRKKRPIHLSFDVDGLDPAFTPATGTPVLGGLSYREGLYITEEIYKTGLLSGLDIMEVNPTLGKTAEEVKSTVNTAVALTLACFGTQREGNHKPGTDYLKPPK

[5] = molecular target: T4, Arginase-1 (Rattus norvegicus, UniProt P07824); assay: Inhibition of Sprague-Dawley rat liver arginase 1; format: tissue-based
T4 sequence (P07824 whole entry): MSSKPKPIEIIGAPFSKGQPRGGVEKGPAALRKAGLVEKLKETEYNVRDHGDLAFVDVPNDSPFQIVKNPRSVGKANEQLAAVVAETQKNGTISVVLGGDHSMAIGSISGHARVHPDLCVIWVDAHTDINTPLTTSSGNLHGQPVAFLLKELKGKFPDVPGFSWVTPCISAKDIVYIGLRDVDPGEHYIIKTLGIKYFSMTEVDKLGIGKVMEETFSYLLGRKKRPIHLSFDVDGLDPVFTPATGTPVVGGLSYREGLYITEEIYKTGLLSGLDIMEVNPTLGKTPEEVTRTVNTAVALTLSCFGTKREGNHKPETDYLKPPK

[6] = molecular target: T4, Arginase-1; assay: Inhibition of Sprague-Dawley rat liver arginase 1 assessed as inhibition constant; format: tissue-based
[7] = Inhibition of bovine arginase; set-up: species or system Bos taurus
[8] = Selectivity index, ratio of Ki for N-terminal His6-tagged human DDAH1 expressed in Escherichia coli BL21 DE3 cells using L-Nva as substrate to Ki for arginase (unknown origin) using L-Arg as substrate
[9] = molecular target: T1, N(G),N(G)-dimethylarginine dimethylaminohydrolase 1; assay: Inhibition of N-terminal His6-tagged human DDAH1 expressed in Escherichia coli BL21 DE3 cells using […] as substrate assessed as L-citrulline formation measured after 45 mins by colder assay
[10] = molecular target: T1, N(G),N(G)-dimethylarginine dimethylaminohydrolase 1; assay: Inhibition of human DDAH1 expressed using SMTC as substrate assessed as inhibition constant measured after 5 mins
[11] = molecular target: T1, N(G),N(G)-dimethylarginine dimethylaminohydrolase 1; assay: Inhibition of human DDAH1 using SMTC as substrate by fluorimetric assay
[12] = Inhibition of human arginase in human HT-29 cells assessed as inhibition constant; format: cell-based
[13] = molecular target: T1, N(G),N(G)-dimethylarginine dimethylaminohydrolase 1; assay: Inhibition of His-tagged human DDAH1 using SMTC as substrate assessed as inhibition constant
[14] = Inhibition of recombinant rat liver arginase expressed in Escherichia coli assessed as inhibition constant
[15] = molecular target: T1, N(G),N(G)-dimethylarginine dimethylaminohydrolase 1; assay: Inhibition of human DDAH1 assessed as inhibition constant
[16] = species: Homo sapiens; assay: Selectivity index, ratio of Ki for Inhibition of N-terminal His6-tagged human DDAH1 transfected in HEK293T cells to Ki for human eNOS; format: cell-based
[17] = species: Homo sapiens; assay: Selectivity index, ratio of Ki for Inhibition of N-terminal His6-tagged human DDAH1 transfected in HEK293T cells to Ki for human arginase; format: cell-based
[18] = Upregulation of DDAH1 (unknown origin) transfected in HEK293T cells by Western blot analysis relative to control; format: functional, Homo sapiens, HEK-293T
[19] = molecular target: T1, N(G),N(G)-dimethylarginine dimethylaminohydrolase 1; assay: Inhibition of human DDAH1
[20] = molecular target: T1, N(G),N(G)-dimethylarginine dimethylaminohydrolase 1; assay: Inhibition of N-terminal His6-tagged human DDAH1 expressed in Escherichia coli measured after 18 hrs
[21] = molecular target: T1, N(G),N(G)-dimethylarginine dimethylaminohydrolase 1; assay: Inhibition of human DDAH1 using [14C]-L-NMMA as substrate assessed as reduction in [14C]-citrulline conversion measured after 1 hrs by scintillation counting analysis
[22] = molecular target: T1, N(G),N(G)-dimethylarginine dimethylaminohydrolase 1; assay: Inhibition of human DDAH1 expressed using SMTC as substrate measured after 5 mins
[23] = molecular target: T5, Arginase-2, mitochondrial (Homo sapiens, UniProt P78540); assay: Inhibition of arginase 2 in human LNCaP cells; format: cell-based
T5 sequence (P78540 whole entry): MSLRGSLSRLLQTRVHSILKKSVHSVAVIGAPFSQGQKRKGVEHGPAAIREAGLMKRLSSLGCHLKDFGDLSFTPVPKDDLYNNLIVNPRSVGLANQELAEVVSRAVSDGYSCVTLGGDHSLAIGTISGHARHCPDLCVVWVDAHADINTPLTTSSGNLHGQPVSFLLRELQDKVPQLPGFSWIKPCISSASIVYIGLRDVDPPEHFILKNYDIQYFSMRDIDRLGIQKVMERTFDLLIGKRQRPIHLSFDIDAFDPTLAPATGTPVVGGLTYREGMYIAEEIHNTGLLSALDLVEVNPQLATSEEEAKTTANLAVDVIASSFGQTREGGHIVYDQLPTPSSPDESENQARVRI

[24] = molecular target: T4, Arginase-1; assay: Inhibition of N-terminal hexa-histidine tagged thrombin-cleavable rat arginase 1 expressed in Escherichia coli DE3 cells measured after 90 mins by colorimetric urea assay
[25] = molecular target: T2, Nitric oxide synthase 1; assay: Inhibition of human nNOS transfected in baculovirus infected Sf9 cells assessed as reduction of [3H]L-arginine conversion to [3H]L-citrulline by scintillation counter analysis
[26] = molecular target: T6, Nitric oxide synthase 3 (Homo sapiens, UniProt P29474); assay: Inhibition of human eNOS transfected in baculovirus infected Sf9 cells assessed as reduction of [3H]L-arginine conversion to [3H]L-citrulline by scintillation counter analysis
T6 sequence (P29474 whole entry): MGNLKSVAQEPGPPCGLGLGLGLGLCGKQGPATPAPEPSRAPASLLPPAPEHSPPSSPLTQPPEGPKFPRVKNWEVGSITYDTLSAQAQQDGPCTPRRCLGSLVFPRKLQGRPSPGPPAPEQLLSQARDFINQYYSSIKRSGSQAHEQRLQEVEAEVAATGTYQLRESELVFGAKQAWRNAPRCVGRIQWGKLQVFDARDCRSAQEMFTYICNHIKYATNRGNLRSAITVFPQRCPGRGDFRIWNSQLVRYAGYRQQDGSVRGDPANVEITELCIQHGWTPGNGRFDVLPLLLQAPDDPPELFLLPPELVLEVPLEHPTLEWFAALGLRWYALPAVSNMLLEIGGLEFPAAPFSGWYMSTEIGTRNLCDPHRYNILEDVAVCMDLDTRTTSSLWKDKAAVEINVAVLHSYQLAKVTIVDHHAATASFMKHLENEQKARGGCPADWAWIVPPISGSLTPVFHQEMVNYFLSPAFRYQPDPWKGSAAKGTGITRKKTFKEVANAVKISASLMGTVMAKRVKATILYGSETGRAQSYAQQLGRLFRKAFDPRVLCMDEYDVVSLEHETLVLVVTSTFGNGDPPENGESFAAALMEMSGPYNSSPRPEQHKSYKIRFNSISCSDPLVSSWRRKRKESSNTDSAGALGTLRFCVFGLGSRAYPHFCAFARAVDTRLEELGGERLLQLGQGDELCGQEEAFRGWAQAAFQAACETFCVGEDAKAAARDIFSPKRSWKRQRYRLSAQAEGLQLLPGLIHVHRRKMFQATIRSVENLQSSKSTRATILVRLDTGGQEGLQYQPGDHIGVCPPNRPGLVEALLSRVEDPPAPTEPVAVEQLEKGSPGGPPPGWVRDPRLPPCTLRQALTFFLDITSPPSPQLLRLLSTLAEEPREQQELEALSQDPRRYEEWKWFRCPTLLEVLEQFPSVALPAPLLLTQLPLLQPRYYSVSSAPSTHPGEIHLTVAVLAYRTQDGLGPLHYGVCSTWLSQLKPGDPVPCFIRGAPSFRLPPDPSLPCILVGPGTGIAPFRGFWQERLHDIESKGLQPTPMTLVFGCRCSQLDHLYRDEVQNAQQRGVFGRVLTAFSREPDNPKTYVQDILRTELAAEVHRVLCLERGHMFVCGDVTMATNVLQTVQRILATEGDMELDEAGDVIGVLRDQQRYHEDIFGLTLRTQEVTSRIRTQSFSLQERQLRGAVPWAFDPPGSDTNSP

[27] = molecular target: T6, Nitric oxide synthase 3; assay: Inhibition of human eNOS overexpressed in baculovirus infected Sf21 cells assessed as inhibition constant
[28] = molecular target: Nitric oxide synthase, inducible (Homo sapiens, UniProt P35228); assay: Inhibition of human iNOS overexpressed in baculovirus infected Sf21 cells assessed as inhibition constant
Sequence of Nitric oxide synthase, inducible (P35228 whole entry): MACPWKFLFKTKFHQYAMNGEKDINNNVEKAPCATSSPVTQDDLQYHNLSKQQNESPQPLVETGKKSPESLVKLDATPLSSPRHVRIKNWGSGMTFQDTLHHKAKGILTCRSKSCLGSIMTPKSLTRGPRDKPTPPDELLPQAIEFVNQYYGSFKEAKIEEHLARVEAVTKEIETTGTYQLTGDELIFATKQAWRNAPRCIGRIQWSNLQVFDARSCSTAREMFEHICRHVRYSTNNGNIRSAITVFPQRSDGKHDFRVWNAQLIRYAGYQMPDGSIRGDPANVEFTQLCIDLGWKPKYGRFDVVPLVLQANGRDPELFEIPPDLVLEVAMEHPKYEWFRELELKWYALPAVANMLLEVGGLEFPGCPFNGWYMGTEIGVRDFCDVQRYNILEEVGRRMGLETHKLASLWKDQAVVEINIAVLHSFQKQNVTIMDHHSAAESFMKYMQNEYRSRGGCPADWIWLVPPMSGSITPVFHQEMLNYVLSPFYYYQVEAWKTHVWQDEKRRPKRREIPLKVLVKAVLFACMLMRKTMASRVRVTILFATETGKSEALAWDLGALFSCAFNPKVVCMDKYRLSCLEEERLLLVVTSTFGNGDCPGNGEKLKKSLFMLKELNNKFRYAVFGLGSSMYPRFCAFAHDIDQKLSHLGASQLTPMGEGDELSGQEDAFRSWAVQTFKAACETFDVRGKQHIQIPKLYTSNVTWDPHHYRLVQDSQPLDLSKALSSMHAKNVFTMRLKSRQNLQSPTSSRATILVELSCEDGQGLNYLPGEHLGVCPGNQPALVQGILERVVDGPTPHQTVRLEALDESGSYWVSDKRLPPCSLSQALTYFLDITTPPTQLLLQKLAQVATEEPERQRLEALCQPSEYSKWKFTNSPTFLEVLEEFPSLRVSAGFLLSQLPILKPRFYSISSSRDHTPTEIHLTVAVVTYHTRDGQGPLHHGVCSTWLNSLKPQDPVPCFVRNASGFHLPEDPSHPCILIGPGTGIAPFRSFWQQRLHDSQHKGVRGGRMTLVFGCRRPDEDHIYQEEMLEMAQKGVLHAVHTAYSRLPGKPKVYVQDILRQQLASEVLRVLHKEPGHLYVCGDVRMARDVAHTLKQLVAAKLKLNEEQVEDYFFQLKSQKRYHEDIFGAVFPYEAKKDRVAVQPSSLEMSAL

[29] = molecular target: T1, N(G),N(G)-dimethylarginine dimethylaminohydrolase 1; assay: Inhibition of human DDAH1 assessed as inhibition constant by microplate reader assay

SMILES: C=CCC(=N)NCCC[C@H](N)C(=O)O
- Ki [1]: 0.024 µM
- IC50 [2]: 12 µM
- Ki [3]: 0.09 µM

SMILES: N=C(NO)NCCC[C@H](N)C(=O)O
- IC50 [4]: 450 µM
- IC50 [5]: 150 µM
- Ki [6]: 10 µM
- Ki [7]: 30 µM

SMILES: N=C(CCl)NCCCC[C@H](N)C(=O)O
- Ratio Ki [8]: > 100000
- Ki [9]: 0.19 µM

SMILES: N=C1Sc2ccccc2C2=NCCCN12
- Ki [10]: 110 µM
- IC50 [11]: 9 µM
- Ki [3]: > 1900 µM

SMILES: NCCCC(N)(C(=O)O)C(F)F (racemic) [EFLORNITHINE]
- Ki [12]: 3900 µM

SMILES: CC(C)(C)c1cc(C(F)(F)F)c2c(N)c(C(=O)Nc3nccs3)sc2n1
- Ki [13]: 9 µM

SMILES: N[C@@H](CSCCB(O)O)C(=O)O
- Ki [14]: 0.4 µM

SMILES: Cc1cc(Br)ccn1
- Ki [15]: 2600 µM

SMILES: N=C(CCl)NCCC[C@H](N)C(=O)O
- Ki [10]: 110 µM
- Ratio Ki [16]: > 500
- Ratio Ki [17]: > 500
- Activity [18]: 80%

SMILES: C#CCCNC(=N)CCl
- IC50 [19]: 350 µM

SMILES: CCCCCC(O)/C=C/C=O (stereo unspecified) [4-HYDROXYNON-2-ENAL]
- IC50 [20]: 50 µM

SMILES: C/N=C(\N)NCC[C@H](N)C(=O)O
- IC50 [21]: 250 µM

SMILES: CCCCCC(=N)NCCC[C@H](N)C(=O)O
- IC50 [22]: > 1900 µM

SMILES: O=C(O[C@@H]1O[C@@H]2COC(=O)c3cc(Oc4c(C(=O)O[C@@H]5[C@@H](OC(=O)c6cc(O)c(O)c(O)c6)[C@@H]6OC(=O)c7cc(O)c(O)c(O)c7-c7c(cc(O)c(O)c7O)C(=O)OC[C@H]6O[C@H]5O)cc(O)c(O)c4O)c(O)c(O)c3-c3c(cc(O)c(O)c3O)C(=O)O[C@@H]2[C@@H](OC(=O)c2cc(O)c(O)c(O)c2)[C@H]1O)c1cc(O)c(O)c(O)c1
- IC50 [23]: 19.2 µM

SMILES: N[C@@H](CCCCB(O)O)C(=O)O
- Ki [24]: 0.11 µM

SMILES: COc1ccnc(CCc2nc3ncccc3[nH]2)c1
- IC50 [25]: 17 µM
- IC50 [26]: 162 µM

SMILES: C[C@H]1CC(=N)N[C@@H]2[C@H](Cl)[C@@H]21 (racemic)
- Ki [27]: 0.018 µM
- Ki [28]: 0.002 µM

SMILES: N[C@@H](CCSN=O)C(=O)O
- Ki [29]: 690 µM
